Laboratory results taken from patent US7172875B2, “Identifying inhibitors of intracellular protein fibrillization” (The Ohio State University Research Foundation, priority 2003, dated 2007).

Experiments:
htau40 [1] = biological target: T1, htau40 (Homo sapiens, UniProt P10636); experiment: Disaggregation of preaggregated tau followed by ThS fluorescence; assay type: biochemical
T1 construct: His-tag; made in house

α-synuclein [2] = biological target: T2, α-synuclein (Homo sapiens, UniProt P37840); experiment: α-synuclein polymerization, electron microscopy; assay type: biochemical; conditions: 37° C.; standard polymerization conditions
T2 construct: His-tag; made in house
Protocol: (§1) α-synuclein Polymerization Assays. Under standard conditions, α-synuclein (4–70 μM) was incubated with AA or other polymerization inducers (25–3000 μM) in Assembly Buffer (10 mM HEPES, pH 7.4, 100 mM NaCl, 5 mM DTT) at 37° C. for 3–26 h, without agitation. Various inducer concentrations were prepared by serial dilution of stock solutions. Control reactions were normalized for 1:1 H2O isopropanol vehicle, which was limited to 5% in all reactions. Samples were processed for electron microscopy and fluorescence spectroscopy as described below.
Electron Microscopy. Aliquots of polymerization reactions were taken, treated with 2% glutaraldehyde (final concentration), mounted on formvar/carbon coated 300 mesh grids, and negatively stained with 2% uranyl acetate as described previously (King et al., 1999). Images were viewed in a Phillips CM 12 transmission electron microscope operated at 65 kV. Random images were captured on film at 8,000–22,000X magnification, digitized at 600 dots-per-inch resolution, and imported into Optimas 6.5.1 for quantification of filament lengths and numbers. Individual filaments were defined as any object greater than 50 nm in its long axis and were counted manually.

htau40 [3] = biological target: T1, htau40; conditions: synthetic filaments aggregated 3 h with AA; Ref. 12; cited from earlier work
α-synuclein [4] = biological target: T2, α-synuclein; experiment: α-synuclein polymerization, Thioflavin T assay; assay type: biochemical
Protocol: as §1
Thioflavin T assay. α-synuclein (4–70 μM) was incubated in Assembly Buffer in the presence of 20 μM thioflavin T, with or without assembly inducers, in 96-well plates. Aggregation was monitored by following thioflavin T fluorescence (λex=[…]; in a Flex Station plate reader (Molecular Devices, Sunnyvale, Calif.).

htau40 [5] = biological target: T1, htau40; experiment: tau aggregation assay, electron microscopy quantification of filament lengths; assay type: biochemical; conditions: 10 μM concentration; data not shown
Protocol: Aggregation assays. Under standard conditions, htau40 (4 μM) was incubated without agitation in Assembly Buffer (10 mM HEPES, pH 7.4, 100 mM NaCl, 5 mM dithiothreitol) at 37° C. for up to 168 h in the presence or absence of fibrillization inducer (AA, alkyl sulfate detergents, or carboxylate modified polystyrene beads). All samples incubated for more than 24 h were kept under argon in parafilm-sealed tubes. Samples were processed for assay by electron microscopy as described below.
Electron Microscopy Assays. […] Random images were viewed in a Phillips CM 12 transmission electron microscope operated at 65 kV, captured on film at 8,000–100,000-fold magnification, digitized at 600 dots-per-inch resolution, and imported into Optimas 6.5.1 for quantification of filament lengths and numbers. Individual filaments (defined as any object greater than 50 nm in its long axis with both ends visible in the field of view) were counted manually. […]
[formula] where y is total filament length (50 nm cutoff) measured at time t, yo is total filament length at time zero, t50 is time to 50% maximum fibrillization, A is the maximum total filament length at equilibrium, and kapp is the apparent first order rate constant for fibril growth in units of time^−1. […]

[6] = CMC measurements for SDS (Corrin-Harkins analysis of CMC depression); assay type: physicochemical; conditions: literature values
Protocol: CMC values for SDS were estimated at 37° C. using N-phenyl-1-naphthylamine as described previously, except that various concentrations of protamine, histone, α-synuclein, or htau40 were included with the samples. Detergent stock solutions were prepared in 1:1 water isopropanol.
Analytical Methods. Dependence of detergent CMC on protein concentration was fit to the empirical Corrin-Harkins equation: log CMC=−kCH(log n)+bCH (1) where n is the molar concentration of protein or salt and kCH and bCH are constants. The slope of these curves, kCH, approximates the proportion of detergent micelles that are ionized.

T1 sequence (P10636 1-441 isoform P10636-8): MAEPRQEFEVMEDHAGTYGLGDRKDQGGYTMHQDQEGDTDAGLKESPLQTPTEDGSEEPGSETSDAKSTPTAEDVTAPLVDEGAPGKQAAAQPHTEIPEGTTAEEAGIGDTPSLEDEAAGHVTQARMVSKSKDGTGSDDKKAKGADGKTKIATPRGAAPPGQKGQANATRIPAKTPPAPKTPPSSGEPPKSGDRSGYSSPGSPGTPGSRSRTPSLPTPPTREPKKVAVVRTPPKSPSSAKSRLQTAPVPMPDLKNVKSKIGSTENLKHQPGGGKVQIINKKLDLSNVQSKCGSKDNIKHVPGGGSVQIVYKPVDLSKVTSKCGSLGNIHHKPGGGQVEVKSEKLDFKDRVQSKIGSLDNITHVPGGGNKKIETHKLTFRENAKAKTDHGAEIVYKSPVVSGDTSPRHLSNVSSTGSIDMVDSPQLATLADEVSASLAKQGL

CCCCC/C=C\C/C=C\C/C=C\C/C=C\CCCC(=O)O [AA, Arachidonic acid]
decay slower than dilution in buffer alone (htau40 [1]; 50 μM arachidonic acid): 50 fold | first order decay rate of ThS fluorescence after 20-fold dilution (htau40 [1]; additive in Assembly Buffer: 50 μM arachidonic acid or 2 μM htau40): 0.5 h⁻¹ | induction of α-synuclein polymerization seen by electron microscopy (α-synuclein [2]): induced | slope constant b of exponential filament length distribution (htau40 [3]): −5.4±0.2 μm^−1

CCCCCCCCCCCCOS(=O)(=O)[O-].[Na+] [C12H25SO4Na]
threshold inducer concentration for induction of α-synuclein fibrillization (α-synuclein [4]; 16 h at 37° C., α-synuclein 5-30 μM): approximately 100 μM

Heparin
induction of α-synuclein polymerization seen by electron microscopy (α-synuclein [2]): little measurable polymerization | Thioflavin T signal (α-synuclein [4]; heparin 25–3000 μM saccharide monomer, both forms of heparin): < 600 counts | induction of α-synuclein fibrillization (Thioflavin T fluorescence) (α-synuclein [4]; α-synuclein 30 μM, 16 h at 37° C.): only weakly

Phosphatidylserine
induction of α-synuclein polymerization seen by electron microscopy (α-synuclein [2]): Abundant filaments and/or filamentous conglomerates

phosphatidic acid
induction of α-synuclein polymerization seen by electron microscopy (α-synuclein [2]): second in potency

phosphatidylcholine
induction of α-synuclein polymerization seen by electron microscopy (α-synuclein [2]): least efficient inducer

thioflavin S [ThS]
inhibition of tau fibrillization (htau40 [5]): not inhibitory

uteroglobulin^4-14: hydrophobic undecapeptide of neutral net charge with two positive charges; literature values (PSFQRVIETLL; UniProt P11684 25-35, looked up, fragment)
potency of CMC depression relative to NaCl on a molar basis [6]: 1000 fold
